Data published in patent publication US10941160B2, “Bromodomain inhibitors” (CELGENE QUANTICEL RESEARCH, INC., priority 2013, dated 2021).
Like-named read-outs stand apart in the source and are kept apart here. Each block holds one molecule with its values, some of them ahead of it.

Assays:
[1] = test system: Raji, human Burkitts lymphoma cells; assay: Cell-MTS cellular proliferation assay, Raji; assay type: cell-based
Description: (§1) The Cell-MTS assay is a 7-day plate-based colorimetric assay which quantifies the amount of newly generated NADH in the presence or absence of test compound. The NADH level is used for the quantification of cancer cell proliferation.
(§2) Established cancer cell lines with a variety of driving mutations were obtained from American Type Culture Collection (ATCC) and routinely passaged according to ATCC protocols. For routine assay, these cells were seeded at densities which enabled ˜90% confluence after 7 days of culture. Raji, human Burkitts lymphoma cells, (cMYC) were seeded at 15,000 cells per 96-well. HL-60, human proleukemia cells, (NRAS, p16, p53, c-Myc amplified) were seeded at 5,000 cells per 96-well. NCI-H460, human non-small cell lung cancer cells, (KRAS, PIK3CA, STLK11, p16) were seeded at 3,000 cells per 96-well 24 hr after plating, cells received an 11-point dilution of test compound with final concentration ranges from 100 μM to 2.0 nM. […] At the end of this incubation period, 80 μL of media is removed and 20 μL of CellTiter 96® AQueous Non-Radioactive Cell Proliferation Assay soln (Promega) was added. The cells were incubated until the OD490 was >0.6. IC50 values were calculated using the IDBS XLtit software package and include background subtracted OD490 values and normalization to DMSO controls. Cellular proliferation IC50 values were uploaded and archived using the Chem Biography Platform.

[2] = target: BRD4(BD1) (Homo sapiens (Human), UniProt O60885); assay: In vitro enzyme inhibition assay (BRD4 AlphaScreen, H4-tetraacetyl peptide); assay type: binding
Description: His-tagged BRD4 was cloned, expressed and purified to homogeneity. […] BRD4 binding and inhibition was assessed by monitoring the interaction of biotinylated H4-tetraacetyl peptide (AnaSpec, H4K5/8/12/16(Ac), biotin-labeled) with the target using the AlphaScreen technology (Life Technologies). […] After 20 min incubation at room temp, Alpha streptavidin donor beads and Nickel Chelate acceptor beads were added to a final concentration of 5 μg/mL.
The ability of the compounds disclosed herein to inhibit BRD4 activity was quantified and the respective IC50 value was determined.

[3] = test system: HL-60, human proleukemia cells; assay: Cell-MTS cellular proliferation assay, HL-60; assay type: cell-based
Description: as §1, §2

[4] = test system: NCI-H460, human non-small cell lung cancer cells; assay: Cell-MTS cellular proliferation assay, NCI-H460; assay type: cell-based
Description: as §1, §2

[5] = in vitro enzyme inhibition assay, class symbols, read-out: BRD4 IC50

IC50 ([1]; Homo sapiens, Raji, Cell-MTS proliferation, 168 hr, class symbols, read-out: Raji IC50): < 0.5 µM | IC50 [2, 5]: < 0.5 µM | IC50 ([4]; Homo sapiens, NCI-H460, 168 hr, class symbols): > 5 µM | IC50 ([3]; Homo sapiens, HL-60, Cell-MTS proliferation, 168 hr, class symbols, read-out: HL-60 IC50): < 0.5 µM
Molecule: Cn1cc(-c2cc(S(C)(=O)=O)ncc2OCC2CC2)c2ccc(F)cc2c1=O [Example 203, 4-[5-(cyclopropylmethoxy)-2-methylsulfonylpyridin-4-yl]-7-fluoro-2-methylisoquinolin-1-one]

IC50 [2, 5]: < 0.5 µM
Molecule: Cn1cc(-c2cc(OS(N)(=O)=O)ccc2OCC2CC2)c2ccccc2c1=O [Example 214, [4-(cyclopropylmethoxy)-3-(2-methyl-1-oxoisoquinolin-4-yl)phenyl] sulfamate]

IC50 [2, 5]: < 0.5 µM
Molecule: Cc1cc(-c2cc(OS(N)(=O)=O)ccc2OCC2CC2)cn(C)c1=O [Example 215, [4-(cyclopropylmethoxy)-3-(1,5-dimethyl-6-oxopyridin-3-yl)phenyl] sulfamate]

Further lines, the molecule ahead of its results:

Molecule: CCNS(=O)(=O)c1cccc(-c2cn(C)c(=O)c3ccc(F)cc23)c1 [Example 49, N-ethyl-3-(6-fluoro-2-methyl-1-oxoisoquinolin-4yl) benzenesulfonamide]
IC50 ([1]; Homo sapiens, Raji, 168 h, read-out: Raji IC50 (μM)): 0.5 to 5 µM | IC50 [2]: 0.5 to 5 µM | IC50 ([3]; Homo sapiens, HL-60, 168 h, read-out: HL-60 IC50 (μM)): 0.5 to 5 µM

Molecule: COc1ccc(-c2cn(C)c(=O)c3cnccc23)cc1S(=O)(=O)NCc1ccccc1 [Example 54, N-benzyl-2-methoxy-5-(2-methyl-1-oxo-2,7-naphthyridin-4-yl) benzenesulfonamide]
IC50 ([1]; Homo sapiens, Raji, Cell-MTS proliferation, 168 hr, read-out: Raji IC50): > 5 µM | IC50 ([4]; Homo sapiens, NCI-H460, 168 hr): > 5 µM | IC50 ([3]; Homo sapiens, HL-60, Cell-MTS proliferation, 168 hr, read-out: HL-60 IC50): 0.5 to 5 µM

Molecule: Cn1cc(-c2cccc(S(N)(=O)=O)c2)c2ccc(F)cc2c1=O [Example 61, 3-(7-fluoro-2-methyl-1-oxoisoquinolin-4-yl) benzenesulfonamide]
IC50 ([1]; Cell-MTS proliferation, 168 hr, read-out: Raji IC50): 0.5 to 5 µM | IC50 ([2]; in vitro enzyme inhibition assay, read-out: BRD4 IC50): < 0.5 µM | IC50 ([3]; Cell-MTS proliferation, 168 hr, read-out: HL-60 IC50): 0.5 to 5 µM

Molecule: N-[5-(cyclopropylmethoxy)-4-(7-fluoro-2-methyl-1-oxoisoquinolin-4-yl) pyrimidin-2-yl]methanesulfonamide [Example 158]
IC50 ([1]; Cell-MTS proliferation, 168 hr, class symbols, read-out: Raji IC50): < 0.5 µM | IC50 ([2]; read-out: BRD4 IC50): < 0.5 µM | IC50 ([4]; 168 hr, class symbols): > 5 µM | IC50 ([3]; Cell-MTS proliferation, 168 hr, class symbols, read-out: HL-60 IC50): < 0.5 µM
